This passage reports IC50 results from PMC13509954 (Antioxidants, 2026).

Molecules are shown by their SMILES.

This assay addresses lactoperoxidase (LPO) (Bos taurus, UniProt P80025). As to the kind of experiment: LPO inhibition, peroxidase selectivity profiling. The format is biochemical.
Molecule `COc1ccc(-c2nc3cc(C)ccn3c2Nc2ccc3c(c2)OCO3)cc1` [NE-2-7] came in with an IC50 of 2250 nM.

In the case of `Cc1ccc2nc(-c3cccnc3)c(Nc3ccc4c(c3)OCO4)n2c1` [NE-2-6], the IC50 was 890 nM.

In the case of `Cc1ccn2c(Nc3ccc4c(c3)OCO4)c(-c3ccc(O)cc3)nc2c1` [NE-2-8], the IC50 came to 1050 nM.
